Series [1] addresses T1, HaloTag®-PDGFR fusion protein (Rhodococcus rhodochrous, UniProt P0A3G2, A155T/A167V/A172T/A224E/C128F/C176G/D78G/E160K/E257K/H272N/K175M/K195N/L47V/L88M/N227D/S58T/T264A/Y273L/Y87F).
T1 construct: expressed in transfected cells; host or cells: U2OS, transient nucleofection
Kind of series: Live-cell labeling of cell surface HaloTag® fusion in U2OS cells (Airyscan fluorescence microscopy). The settings on record: 100 nM, 1 h. Format: cell-based. As for the experimental part: (§1) U2OS cell culture, labeling, and fluorescence microscopy. U2OS cells (ATCC) were cultured in Dulbecco's modified Eagle medium (DMEM, phenol red-free; Life Technologies) supplemented with 10% (v/v) fetal bovine serum (FBS, Life Technologies), 1 mM GlutaMAX (Life Technologies) and maintained at 37° C. in a humidified 5% (v/v) CO2 environment. These cell lines undergo regular mycoplasma testing by the Janelia Cell Culture Facility. U2OS cells stably expressing an integrated HaloTag®-histone H2B fusion protein (U2OS.H2B.HaloTag®) were used for nuclear imaging and imaged 18-24 h post-plating. […]
(§2) Live cell imaging with biotin-rhodamine HaloTag® ligands. Having evaluated biotin ligands 12-15 in vitro, their ability to label HaloTag® fusions in live mammalian cells was tested. […] Quantification of the intracellular fluorescence signal from JF549 and msGFP channel further confirmed the poor labeling from 12 (FIG. 9).

The subject of series [2] is HaloTag®-TOMM20, HaloTag®-Sec61β, HaloTag®-histone H2B fusion proteins. In kind it is cell-based. As for the experimental part: as §1, §2

Chain of HaloTag®-TOMM20, HaloTag®-Sec61β, HaloTag®-histone H2B fusion proteins (as listed by the source): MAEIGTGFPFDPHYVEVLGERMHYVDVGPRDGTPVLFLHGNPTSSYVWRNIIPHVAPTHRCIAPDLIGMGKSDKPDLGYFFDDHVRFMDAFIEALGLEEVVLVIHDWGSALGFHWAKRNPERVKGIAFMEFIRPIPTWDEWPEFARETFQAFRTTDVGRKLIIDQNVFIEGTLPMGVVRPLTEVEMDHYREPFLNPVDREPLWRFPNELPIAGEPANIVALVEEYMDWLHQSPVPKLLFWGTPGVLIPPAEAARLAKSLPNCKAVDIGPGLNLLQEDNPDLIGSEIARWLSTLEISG
T1 sequence (P0A3G2 other isoform, or with tags, fused parts or gaps with the stated changes): as the sequence (as listed by the source) above

With “Biotin-JF549-HaloTag® ligand [compound 12]”, the “labeling of extracellular HaloTag®-PDGFR fusion” value in series [1] is reported as “robust labeling of the cellular membrane”. Further, the cell-permeability result in series [2] was “poor cell-permeability”. In addition, the “labeling of intracellular HaloTag® fusions” value in series [2] (live U2OS cells, 100 nM, 1 h, mitochondria, ER, nucleus) is reported as “did not show an appreciable signal”.

Values taken from patent US20240239818A1, “COMPOUNDS AND COMPOSITIONS COMPRISING FLUOROPHORES FOR USE IN VISUALIZATION AND PURIFICATION OR MANIPULATION” (priority 2022, published 2024).
